“Also recorded” adds a separate entry of the source.
Tests used:
S. Cerevisiae = assay: yeast bioscreen, Chronological Lifespan Profile of ageing yeast cultures; type: cell-based
Source text: The yeast bioscreen measures the Chronological Lifespan Profile of an ageing yeast cultures. The median lifespan is defined as the time at which 50% of a given population has died. Relative viability (expressed in the below chart) compares the effect of treatment on a cultures viability as a fraction of control vehicle treated cultures.
RDC5 is thus believed to be able to delay ageing and the onset of age-related diseases such as unwanted fat accumulation.

Bus8 worms = assay: worm lifespan (Healthspan, Median lifespan) in Bus8 background; type: in vivo; design: Healthspan: unit not given here; conditions: for Healthspan: Control 6.87; for Median Lifespan: Control 10.10
Source text: (§1) Worm cultures of at least 80 worms were manually assessed daily for the duration of the lifespan.

Bus5 worms = assay: worm lifespan (Healthspan, Median lifespan) in Bus5 worms; type: in vivo; conditions: for Healthspan: Control 10.93; for Median Lifespan: Control 15.08
Source text: as §1

C. elegans = assay: lipid accumulation in worms, Oil-Red-O staining; type: in vivo; conditions: for age dependent increase in fat (lipid) accumulation: Oil-Red-O, versus DMSO control
Source text: Tacrolimus is able to delay the age dependent increase in fat accumulation in C. elegans. Worms are a versatile model of obesity ref: (Zheng & Greenway, 2012)
Oil-Red-O is a fat-soluble dye used for staining lipids and is quantified by colour light microscopy.

[1] = aged rat study: weekly body weight and survival; type: in vivo
Source text: Aged rats are known to increase in body weight dramatically in late adulthood. Aged rats were being used as a model in RAT_ND_01 and body weights and tissue samples were taken from the rats in this trial. Rats were 18 m of age at the start of the 6 m trial. The dosage is seen in FIG. 4.
Throughout this study (i.e. from 18 months of age onwards), individual weekly body weight assessments were made for both the control and RDC5 treated group. […] At the 1 and 2 week time-points, before the onset of treatment, no significant difference between RDC5 and control treatment could be observed. Control treated rat body weight continued to increase over time from approximately 250 g to over 320 g at the 6 month time-point (at 24 months of age). […] Weight levels dropped initially however not below a healthy age (approx. 230 g) and remained constant (+/−20 g) for the remainder of the study.
Fifty female Fischer rats initially aged 18 months were used in this study. Animals were housed at standard temperature (22±1° C.) in light controlled environment (lights on from 7 am to 8 pm) with ad libitum access to food and water with softer food introduced at 17 weeks to encourage food intake. Half the animals were treated with vehicle (5 ml/kg, s.c.) 6 days a week and half were treated with RDC5 (1 mg/kg, s.c.) 6 days a week. Individual body weights were recorded at baseline and then once a week until the end of the study.

[2] = blood / plasma metabolic biomarkers of aged rats after 6 m treatment; type: in vivo, rat
Source text: A range of techniques has been used to determine the effect RDC5 has on levels of blood biomarkers of obesity and metabolic disorders.
Metabolic biomarkers tested included: • Ketone Bodies—kinetic enzymatic • Free Fatty acids—ACS-ACOD Enzymatic • Glycerol—Calometric • Triglycerides—GPO-POD • HDL Cholesterol—CHO-PAP • LDL Cholesterol—Enzymatic • Total Cholesterol—CHO-PAP
The RDC5 treated and control treated animals had their blood plasma profiled at the end of the investigations.

[3] = post mortem MRI scanning of aged rats, fat:lean ratio; type: in vivo, rat; conditions: for sub-cutaneous fat / visceral fat / fat within the body cavity: 24 month old rats, MRI, versus control treated
Source text: FIG. 11 presents MIR data comparing 3 month old untreated animal, 24 month old control treated animal and 24 month old tacrolimus treated animal. […] This is consistent with a cosmetic improvement (with respect to reduction in sub-cutaneous fat) and a health improvement (with respect to reduction of fat near internal organs) produced by tacrolimus treatment. The MIR images are marked (areas 1) to show internal fat areas. The sub-cutaneous fat layer is the light grey outer ring only easily seen in the 24 month old untreated control.

worms = assay: worm lifespan, strain not stated (close structural analogues, dosing frequency); type: in vivo; design: Healthspan / Median Lifespan / Max Lifespan: unit not given here; conditions: for ability to extend the lifespan of worms compared with tacrolimus: lifespan plots FIG. 7 / FIG. 8
Source text: as §1

[4] = blood levels of tacrolimus after one 0.3 mg oral capsule in healthy human volunteers; type: in vivo
Protocol: A hard gelatine capsule was filled with the following composition:
(§2) One oral capsule as above containing 0.3 mg tacrolimus was administered to groups of healthy human volunteers. […] The average trough level of tacrolimus (level after 24 hours of administration of each dose) observed was approximately 220 pg/mL.

TNF-α = assay: blood TNF-α levels in healthy human volunteers after 0.3 mg capsule; type: in vivo; conditions: 0.3 mg oral capsule
Protocol: as §2

Osteoblast cells = assay: response to oxidative stress of Osteoblast cells; type: cell-based
[5] = 6 m treatment in rats, versus control
[6] = blood plasma at end of study, versus control treated
[7] = FIG. 8 experiment, Control 10.4

SMILES: C=CC[C@@H]1/C=C(\C)C[C@H](C)C[C@H](OC)[C@H]2O[C@@](O)(C(=O)C(=O)N3CCCC[C@H]3C(=O)O[C@H](/C(C)=C/[C@@H]3CC[C@@H](O)[C@H](OC)C3)[C@H](C)[C@@H](O)CC1=O)[C@H](C)C[C@@H]2OC [RDC5, tacrolimus]
- effect on growth rate (S. Cerevisiae; S. Cerevisiae): without effecting growth rate
- median lifespan of yeast cultures versus control treated cultures (S. Cerevisiae; S. Cerevisiae chronological lifespan): significantly longer
- Healthspan % increase wrt control (Bus8 worms; Bus8, 1 ug/ml): 0.5%
- Median Lifespan % increase wrt control (Bus8 worms; Bus8, 1 ug/ml): 7.5%
- Healthspan (Bus8 worms; Bus8, 1 ug/ml): 6.90
- Median Lifespan (Bus8 worms; Bus8, 1 ug/ml): 10.86
- Healthspan % increase wrt control (Bus8 worms; Bus8, 10 ug/ml): 14%
- Median Lifespan % increase wrt control (Bus8 worms; Bus8, 10 ug/ml): 20%
- Healthspan (Bus8 worms; Bus8, 10 ug/ml): 7.85
- Median Lifespan (Bus8 worms; Bus8, 10 ug/ml): 12.18
- Healthspan % increase wrt control (Bus8 worms; Bus8, 20 ug/ml): −9%
- Median Lifespan % increase wrt control (Bus8 worms; Bus8, 20 ug/ml): 16%
- Healthspan (Bus8 worms; Bus8, 20 ug/ml): 6.23
- Median Lifespan (Bus8 worms; Bus8, 20 ug/ml): 11.70
- Healthspan % increase wrt control (Bus8 worms; Bus8, 40 ug/ml): −3%
- Median Lifespan % increase wrt control (Bus8 worms; Bus8, 40 ug/ml): 16%
- Healthspan (Bus8 worms; Bus8, 40 ug/ml): 6.67
- Median Lifespan (Bus8 worms; Bus8, 40 ug/ml): 11.70
- dose at which efficacy peaks for Median Lifespan extension (Bus8 worms; Bus8 worms): 10 µg/mL
- most efficacious dose at extending Healthspan (Bus8 worms; Bus8 worms, doses tested 1, 10, 20, 40 ug/ml): 10 µg/mL
- Healthspan and Median lifespan of populations of worms (Bus8 worms; cultures of at least 80 worms, assessed daily): able to extend
- least effective dose (Bus8 worms; dose response in worms, FIG. 9): 40 µg/mL
- Healthspan % increase wrt control (Bus5 worms; Bus5, 1 ug/ml): 33%
- Median Lifespan % increase wrt control (Bus5 worms; Bus5, 1 ug/ml): 23%
- Healthspan (Bus5 worms; Bus5, 1 ug/ml): 14.55
- Median Lifespan (Bus5 worms; Bus5, 1 ug/ml): 18.54
- Healthspan % increase wrt control (Bus5 worms; Bus5, 10 ug/ml): 23%
- Median Lifespan % increase wrt control (Bus5 worms; Bus5, 10 ug/ml): 26%
- Healthspan (Bus5 worms; Bus5, 10 ug/ml): 13.43
- Median Lifespan (Bus5 worms; Bus5, 10 ug/ml): 19.03
- Healthspan % increase wrt control (Bus5 worms; Bus5, 40 ug/ml): −6%
- Median Lifespan % increase wrt control (Bus5 worms; Bus5, 40 ug/ml): 0.5%
- Healthspan (Bus5 worms; Bus5, 40 ug/ml): 10.28
- Median Lifespan (Bus5 worms; Bus5, 40 ug/ml): 15.17
- age dependent increase in fat (lipid) accumulation (C. elegans): shallower rise
- age dependent increase in fat (lipid) accumulation (C. elegans; listed as Tacrolimus): able to delay
- time at which maximal lipid accumulation happens (C. elegans; days post adulthood, DMSO control day 4): 7 days
- age related weight gain ([1]; 1 mg/kg s.c. 6 days a week): did not show age related weight gain
- survival of animals at the end of the study versus control ([1]; 1 mg/kg s.c. 6 days a week, 6 months): No significant differences
- lighter than control treated age-matched rats at end of study ([1]; 6 month study, 24 months of age): 28%
- HDL [2, 5]: significant reductions
- LDL [2, 5]: significant reductions
- free fatty acids [2, 5]: reduction is not statistically significant
- glycerol [2, 5]: reduction is not statistically significant
- ketone bodies [2, 5]: reduction is not statistically significant
- total cholesterol [2, 5]: significant reductions
- triglycerides [2, 5]: significant reductions; also recorded: beneficial reduction
- reduction in lactate dehydrogenase levels [2, 6]: 50%
- reduction in total cholesterol [2, 6]: 40%
- sub-cutaneous fat [3]: less
- visceral fat / fat within the body cavity [3]: less
- sub-cutaneous fat ([3]; listed as tacrolimus): akin to the 3 month old untreated animal
- visceral fat / fat within the body cavity ([3]; listed as tacrolimus): much less
- average body fat ([3]; rats at 24 months, control roughly 40%, 3 month rats roughly 20%): roughly 30%
- Healthspan (worms; FIG. 7 experiment, Control 3.0, listed as RDC5 (Evita)): 4.5
- Healthspan (worms; FIG. 7 experiment, Control 3.0, listed as RDC5 (Sigma)): 4.6
- Median Lifespan (worms; FIG. 7 experiment, Control 5.7, listed as RDC5 (Evita)): 7.1
- Median Lifespan (worms; FIG. 7 experiment, Control 5.7, listed as RDC5 (Sigma)): 7.8
- Max Lifespan (worms; FIG. 7 experiment, Control 8.7, listed as RDC5 (Evita)): 10.3
- Max Lifespan (worms; FIG. 7 experiment, Control 8.7, listed as RDC5 (Sigma)): 11.2
- Healthspan (worms; FIG. 8 experiment, Control 5.9): 7.8
- Median Lifespan (worms; FIG. 8 experiment, Control 8.1): 10.8
- Max Lifespan (worms; [7]): 13.8
- lifespan compared to control (worms; dosing on one third of days, except when dosing not commenced early in lifespan): significant increases
- lifespan compared to control (worms; dosing on two thirds of days): significant increases
- shape of dose response, worm lifespan extension (worms; in vivo): bell shaped dose response
- average peak level of tacrolimus ([4]; 0.3 mg oral capsule, healthy volunteers): approximately 3700 pg/mL
- AUC(0-t) ([4]; human, blood, 0.3 mg oral capsule, healthy volunteers, read-out: average area under the curve AUC 0-t): ~23.5 ng·h/mL
- concentration at 24 h ([4]; human, blood, 0.3 mg oral capsule, level after 24 hours of administration of each dose, healthy volunteers, read-out: average trough level of tacrolimus): ~0.22 ng/mL
- expected trough level ([4]; two capsules, single dose of 0.6 mg): about 440 pg/mL
- changes in blood TNF-α levels (TNF-α): No significant changes
- shape of dose response, response to oxidative stress (Osteoblast cells): bell shaped dose response

SMILES: CC[C@@H]1/C=C(\C)C[C@H](C)C[C@H](OC)[C@H]2O[C@@](O)(C(=O)C(=O)N3CCCC[C@H]3C(=O)O[C@H](/C(C)=C/[C@@H]3CC[C@@H](O)[C@H](OC)C3)[C@H](C)[C@@H](O)CC1=O)[C@H](C)C[C@@H]2OC [Ascomycin]
- Healthspan (worms; FIG. 7 experiment, Control 3.0): 4.1
- Median Lifespan (worms; FIG. 7 experiment, Control 5.7): 7.2
- Max Lifespan (worms; FIG. 7 experiment, Control 8.7): 10.6
- ability to extend the lifespan of worms compared with tacrolimus (worms): as effectively as tacrolimus

SMILES: CCC[C@@H]1/C=C(\C)C[C@H](C)C[C@H](OC)C2O[C@@](O)(C(=O)C(=O)N3CCCC[C@H]3C(=O)O[C@H](/C(C)=C/[C@@H]3CC[C@@H](O)[C@H](OC)C3)[C@H](C)[C@@H](O)CC1=O)[C@H](C)C[C@@H]2OC [Dihydrotacrolimus]
- Healthspan (worms; FIG. 8 experiment, Control 5.9): 7.3
- Median Lifespan (worms; FIG. 8 experiment, Control 8.1): 10.3
- Max Lifespan (worms; [7]): 13.2
- ability to extend the lifespan of worms compared with tacrolimus (worms): almost as effectively as tacrolimus

Source: patent US20160120853A1, “TACROLIMUS AND ANALOGUES THEREOF FOR MEDICAL USE” (CHRONOS THERAPEUTICS LIMITED, priority 2013, published 2016)
